Reference: ChEMBL document CHEMBL3044995, “Synthesis of allylic trifluoromethyl ketones and their activity as inhibitors of the sex pheromone of the leopard moth, Zeuzera pyrina L. (Lepidoptera: Cossidae)” (Pest Manag Sci, 2011)
≈ marks a conversion by molar mass, not a printed value. Calls of active or inactive are those of the source. The rule behind the calls is not given here.

Legend:
Zeuzera pyrina [1] = assay: Inhibition of electroantennogram response of Zeuzera pyrina males to sex pheromone at 0.5 ug/antenna topical application by electrophysiology; type: functional, organism-based
Zeuzera pyrina [2] = assay: Inhibition of electroantennogram response of Zeuzera pyrina males to sex pheromone at 1 ug/antenna topical application by electrophysiology; type: functional
Zeuzera pyrina [3] = assay: Inhibition of electroantennogram response of Zeuzera pyrina males to sex pheromone at =>0.05 ug/antenna topical application by electrophysiology; type: functional, organism-based
Zeuzera pyrina [4] = assay: Inhibition of electroantennogram response of Zeuzera pyrina males to sex pheromone at 0.1 ug/antenna topical application by electrophysiology; type: functional, organism-based
Zeuzera pyrina [5] = assay: Effect on response of Zeuzera pyrina males to the calling female assessed as complete upwind fligts up to 10 ug by Wind tunnel assay; type: functional
Zeuzera pyrina [6] = assay: Effect on response of Zeuzera pyrina males to the calling female assessed as flight towords source up to 10 ug by Wind tunnel assay; type: functional
Zeuzera pyrina [7] = assay: Effect on response of Zeuzera pyrina males to the calling female assessed as male took off up to 10 ug by Wind tunnel assay; type: functional
Zeuzera pyrina [8] = assay: Effect on response of Zeuzera pyrina males to the calling female assessed as contact to female up to 10 ug by Wind tunnel assay; type: functional
[9] = Toxicity in Swiss Mus musculus (mouse) measured after 6 days; type: organism-based; conditions: in vivo
Daphnia = assay: Toxicity in Daphnia assessed as survial; type: organism-based

With `CCCC/C=C\CCCCCCCCC/C=C/CC(=O)C(F)(F)F` the inhibition (Zeuzera pyrina [1]) was “Active”, the “inhibition (INH)” value (Zeuzera pyrina [2]) was greater than 80% and the inhibition (Zeuzera pyrina [3]) was “Active”. For the same molecule, the Activity (Zeuzera pyrina [4]) was “Active”.

In the case of `CCCC/C=C\CCCCCCCC/C=C/CCC(=O)C(F)(F)F`, the “inhibition (INH)” value (Zeuzera pyrina [2]) is reported as greater than 80%, the Activity (Zeuzera pyrina [5]) is reported as 55% and the Activity (Zeuzera pyrina [4]) is reported as “Active”. For the same molecule, the Activity (Zeuzera pyrina [6]) was 62%, the Activity (Zeuzera pyrina [7]) was 95% and the Activity (Zeuzera pyrina [8]) was 55%.

In the case of `CCCC/C=C\CCCCCCCCCCC(=O)C(F)(F)F`, the LD50 at 144 h [9] is reported as 1000 mg/kg and the EC50 (Daphnia) is reported as 0.07 µg/mL (≈ 0.218 µM).

Work on `CCCCCCCCSCC(=O)C(F)(F)F` yielded an LD50 at 144 h [9] of 1000 mg/kg.
